Among the targets are Aurora kinase B (Homo sapiens, UniProt Q96GD4); Ephrin type-A receptor 4 (Homo sapiens, UniProt P54764); Focal adhesion kinase 1 (Homo sapiens, UniProt Q05397).
Test [1] concerns the target T1, Acyl-CoA dehydrogenase family member 11 (Homo sapiens, UniProt Q709F0).
T1 sequence (Q709F0 whole entry): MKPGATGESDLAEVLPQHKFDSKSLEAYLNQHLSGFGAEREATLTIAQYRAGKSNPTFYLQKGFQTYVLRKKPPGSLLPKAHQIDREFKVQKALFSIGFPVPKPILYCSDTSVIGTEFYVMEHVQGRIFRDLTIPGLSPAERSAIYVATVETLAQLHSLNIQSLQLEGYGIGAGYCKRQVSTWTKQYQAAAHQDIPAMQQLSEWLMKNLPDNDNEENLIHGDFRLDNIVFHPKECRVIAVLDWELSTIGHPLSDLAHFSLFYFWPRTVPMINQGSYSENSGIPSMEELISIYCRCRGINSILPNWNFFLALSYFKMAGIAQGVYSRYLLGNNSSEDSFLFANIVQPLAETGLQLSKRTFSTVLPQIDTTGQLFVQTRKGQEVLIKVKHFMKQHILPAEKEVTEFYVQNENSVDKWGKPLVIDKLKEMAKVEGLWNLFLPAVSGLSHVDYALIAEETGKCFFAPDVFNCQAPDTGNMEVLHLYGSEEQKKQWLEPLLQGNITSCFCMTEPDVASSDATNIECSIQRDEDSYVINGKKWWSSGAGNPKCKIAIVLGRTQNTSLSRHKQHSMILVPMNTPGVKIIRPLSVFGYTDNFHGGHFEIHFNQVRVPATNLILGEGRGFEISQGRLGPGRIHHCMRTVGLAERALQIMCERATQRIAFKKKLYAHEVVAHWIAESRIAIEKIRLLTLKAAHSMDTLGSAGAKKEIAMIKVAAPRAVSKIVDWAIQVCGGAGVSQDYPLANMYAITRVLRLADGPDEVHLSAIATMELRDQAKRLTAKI

Test [2] concerns the target T2, Peroxisomal acyl-coenzyme A oxidase 1 (Homo sapiens, UniProt Q15067).
T2 sequence (Q15067 whole entry): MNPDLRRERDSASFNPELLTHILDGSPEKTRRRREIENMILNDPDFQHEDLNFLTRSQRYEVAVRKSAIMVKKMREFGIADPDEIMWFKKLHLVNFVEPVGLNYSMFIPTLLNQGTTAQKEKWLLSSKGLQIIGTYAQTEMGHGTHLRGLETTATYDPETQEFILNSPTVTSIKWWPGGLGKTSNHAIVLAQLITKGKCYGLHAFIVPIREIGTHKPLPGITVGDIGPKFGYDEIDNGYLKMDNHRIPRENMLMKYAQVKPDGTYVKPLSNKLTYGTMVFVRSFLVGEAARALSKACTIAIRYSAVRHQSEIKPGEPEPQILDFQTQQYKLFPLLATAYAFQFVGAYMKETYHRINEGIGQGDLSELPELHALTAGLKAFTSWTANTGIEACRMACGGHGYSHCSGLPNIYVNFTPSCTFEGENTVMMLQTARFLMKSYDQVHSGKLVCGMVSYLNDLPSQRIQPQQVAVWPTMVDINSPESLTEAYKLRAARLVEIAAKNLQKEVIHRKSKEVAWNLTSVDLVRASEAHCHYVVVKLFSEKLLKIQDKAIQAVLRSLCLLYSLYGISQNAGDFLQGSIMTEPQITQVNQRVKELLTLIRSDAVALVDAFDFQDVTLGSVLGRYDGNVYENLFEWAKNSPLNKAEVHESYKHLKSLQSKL

Test [3] has as its target Serine/threonine-protein kinase B-raf (Homo sapiens, UniProt P15056).
In the next test the target is T3, Scaffold protein ILK (Homo sapiens, UniProt Q13418).
T3 sequence (Q13418 whole entry): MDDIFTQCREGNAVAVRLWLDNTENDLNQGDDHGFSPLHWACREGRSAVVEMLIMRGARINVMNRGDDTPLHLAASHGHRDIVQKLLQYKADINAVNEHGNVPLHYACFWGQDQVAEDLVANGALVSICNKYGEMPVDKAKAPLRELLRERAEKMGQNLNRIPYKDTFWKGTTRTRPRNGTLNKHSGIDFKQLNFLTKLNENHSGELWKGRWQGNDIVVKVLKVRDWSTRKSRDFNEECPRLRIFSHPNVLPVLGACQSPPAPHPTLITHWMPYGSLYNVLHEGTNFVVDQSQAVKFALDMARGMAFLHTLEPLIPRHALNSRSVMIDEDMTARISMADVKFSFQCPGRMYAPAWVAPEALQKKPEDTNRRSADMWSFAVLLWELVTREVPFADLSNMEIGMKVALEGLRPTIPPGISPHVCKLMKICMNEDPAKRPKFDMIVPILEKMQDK

Test [4] has as its target Tyrosine-protein kinase Lck (Homo sapiens, UniProt P06239).
Test [5] concerns the target T4, Serine/threonine-protein kinase ULK3 (Homo sapiens, UniProt Q6PHR2).
T4 sequence (Q6PHR2 whole entry): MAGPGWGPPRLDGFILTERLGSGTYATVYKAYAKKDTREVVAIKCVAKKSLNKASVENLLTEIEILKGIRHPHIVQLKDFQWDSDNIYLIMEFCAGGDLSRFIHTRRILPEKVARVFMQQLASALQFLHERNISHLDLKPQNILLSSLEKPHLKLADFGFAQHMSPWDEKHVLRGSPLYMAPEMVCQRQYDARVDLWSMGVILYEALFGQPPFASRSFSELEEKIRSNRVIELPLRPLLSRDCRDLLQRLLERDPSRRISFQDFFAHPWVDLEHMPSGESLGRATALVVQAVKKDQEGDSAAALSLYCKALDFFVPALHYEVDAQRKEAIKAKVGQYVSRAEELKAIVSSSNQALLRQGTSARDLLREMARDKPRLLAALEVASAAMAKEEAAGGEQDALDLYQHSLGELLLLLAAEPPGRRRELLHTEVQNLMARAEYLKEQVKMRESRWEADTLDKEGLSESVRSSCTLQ

This note sets out measurements from ChEMBL document CHEMBL3991601, “The target landscape of clinical kinase drugs” (Science, 2017).

Active and inactive are the calls of the source. Rule as the data show it, for most assays here: actives have a measured Kd and inactives only a lower limit. Bounds are passed on as bounds.

The term Kd denotes the free concentration of one partner at which half of the binding sites on the other are occupied at equilibrium, for simple one-to-one binding.
Also: in the data inactive means no Kd found up to 30 µM.

Chain of Aurora kinase B (Q96GD4 whole entry): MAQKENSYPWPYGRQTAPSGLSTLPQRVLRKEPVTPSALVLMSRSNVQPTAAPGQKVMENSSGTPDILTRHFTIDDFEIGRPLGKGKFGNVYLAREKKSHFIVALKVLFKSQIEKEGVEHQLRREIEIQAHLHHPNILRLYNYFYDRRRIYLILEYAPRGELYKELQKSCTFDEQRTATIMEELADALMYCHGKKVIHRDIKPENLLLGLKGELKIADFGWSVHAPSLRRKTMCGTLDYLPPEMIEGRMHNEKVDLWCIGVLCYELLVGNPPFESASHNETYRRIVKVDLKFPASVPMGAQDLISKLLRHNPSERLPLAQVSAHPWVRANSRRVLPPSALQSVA
Chain of Serine/threonine-protein kinase B-raf (P15056 whole entry): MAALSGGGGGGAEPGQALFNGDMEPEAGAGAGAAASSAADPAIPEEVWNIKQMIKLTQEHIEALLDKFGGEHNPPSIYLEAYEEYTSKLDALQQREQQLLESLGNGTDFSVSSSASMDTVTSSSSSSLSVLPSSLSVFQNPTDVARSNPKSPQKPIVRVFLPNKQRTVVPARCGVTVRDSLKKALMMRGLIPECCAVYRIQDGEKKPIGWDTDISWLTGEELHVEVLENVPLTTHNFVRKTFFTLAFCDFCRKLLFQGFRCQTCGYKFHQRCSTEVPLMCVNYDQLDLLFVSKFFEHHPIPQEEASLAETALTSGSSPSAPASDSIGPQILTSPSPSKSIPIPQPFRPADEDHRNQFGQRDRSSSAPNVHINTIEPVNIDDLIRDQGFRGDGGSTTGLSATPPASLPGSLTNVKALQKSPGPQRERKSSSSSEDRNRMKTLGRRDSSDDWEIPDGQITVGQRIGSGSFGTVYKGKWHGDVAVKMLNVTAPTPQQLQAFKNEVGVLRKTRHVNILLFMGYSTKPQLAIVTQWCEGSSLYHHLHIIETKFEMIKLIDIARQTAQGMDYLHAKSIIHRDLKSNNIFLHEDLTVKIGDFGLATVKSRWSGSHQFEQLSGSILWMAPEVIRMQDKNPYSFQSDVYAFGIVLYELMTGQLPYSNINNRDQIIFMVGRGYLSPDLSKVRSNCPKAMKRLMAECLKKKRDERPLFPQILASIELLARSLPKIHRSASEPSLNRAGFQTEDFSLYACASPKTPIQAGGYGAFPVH
Chain of Focal adhesion kinase 1 (Q05397 whole entry): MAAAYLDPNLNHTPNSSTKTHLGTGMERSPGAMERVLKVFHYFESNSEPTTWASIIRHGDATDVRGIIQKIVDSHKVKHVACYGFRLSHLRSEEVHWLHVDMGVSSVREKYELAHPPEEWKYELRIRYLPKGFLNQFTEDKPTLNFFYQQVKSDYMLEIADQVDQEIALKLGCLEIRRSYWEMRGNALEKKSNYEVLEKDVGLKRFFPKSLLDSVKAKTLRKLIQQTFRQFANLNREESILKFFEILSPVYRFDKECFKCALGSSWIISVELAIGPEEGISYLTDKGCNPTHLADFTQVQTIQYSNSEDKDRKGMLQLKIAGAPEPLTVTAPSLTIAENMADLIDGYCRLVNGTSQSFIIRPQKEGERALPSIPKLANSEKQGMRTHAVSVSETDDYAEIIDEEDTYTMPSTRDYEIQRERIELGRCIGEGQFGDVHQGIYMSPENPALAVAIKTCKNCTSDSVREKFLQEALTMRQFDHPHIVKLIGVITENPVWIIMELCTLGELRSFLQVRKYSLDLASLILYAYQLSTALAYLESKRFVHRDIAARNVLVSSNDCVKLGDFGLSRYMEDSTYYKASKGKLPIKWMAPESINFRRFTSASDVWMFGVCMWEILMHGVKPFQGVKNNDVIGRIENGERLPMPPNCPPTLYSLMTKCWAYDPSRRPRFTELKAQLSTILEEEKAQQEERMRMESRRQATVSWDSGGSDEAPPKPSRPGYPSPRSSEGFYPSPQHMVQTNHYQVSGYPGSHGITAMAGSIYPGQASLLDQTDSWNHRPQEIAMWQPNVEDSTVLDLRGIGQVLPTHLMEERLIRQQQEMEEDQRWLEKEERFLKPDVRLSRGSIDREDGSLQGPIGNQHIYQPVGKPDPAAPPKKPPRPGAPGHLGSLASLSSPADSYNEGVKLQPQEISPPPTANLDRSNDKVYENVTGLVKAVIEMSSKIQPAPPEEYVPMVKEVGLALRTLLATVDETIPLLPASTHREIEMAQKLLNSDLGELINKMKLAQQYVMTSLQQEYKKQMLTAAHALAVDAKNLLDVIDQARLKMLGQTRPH
Chain of Ephrin type-A receptor 4 (P54764 whole entry): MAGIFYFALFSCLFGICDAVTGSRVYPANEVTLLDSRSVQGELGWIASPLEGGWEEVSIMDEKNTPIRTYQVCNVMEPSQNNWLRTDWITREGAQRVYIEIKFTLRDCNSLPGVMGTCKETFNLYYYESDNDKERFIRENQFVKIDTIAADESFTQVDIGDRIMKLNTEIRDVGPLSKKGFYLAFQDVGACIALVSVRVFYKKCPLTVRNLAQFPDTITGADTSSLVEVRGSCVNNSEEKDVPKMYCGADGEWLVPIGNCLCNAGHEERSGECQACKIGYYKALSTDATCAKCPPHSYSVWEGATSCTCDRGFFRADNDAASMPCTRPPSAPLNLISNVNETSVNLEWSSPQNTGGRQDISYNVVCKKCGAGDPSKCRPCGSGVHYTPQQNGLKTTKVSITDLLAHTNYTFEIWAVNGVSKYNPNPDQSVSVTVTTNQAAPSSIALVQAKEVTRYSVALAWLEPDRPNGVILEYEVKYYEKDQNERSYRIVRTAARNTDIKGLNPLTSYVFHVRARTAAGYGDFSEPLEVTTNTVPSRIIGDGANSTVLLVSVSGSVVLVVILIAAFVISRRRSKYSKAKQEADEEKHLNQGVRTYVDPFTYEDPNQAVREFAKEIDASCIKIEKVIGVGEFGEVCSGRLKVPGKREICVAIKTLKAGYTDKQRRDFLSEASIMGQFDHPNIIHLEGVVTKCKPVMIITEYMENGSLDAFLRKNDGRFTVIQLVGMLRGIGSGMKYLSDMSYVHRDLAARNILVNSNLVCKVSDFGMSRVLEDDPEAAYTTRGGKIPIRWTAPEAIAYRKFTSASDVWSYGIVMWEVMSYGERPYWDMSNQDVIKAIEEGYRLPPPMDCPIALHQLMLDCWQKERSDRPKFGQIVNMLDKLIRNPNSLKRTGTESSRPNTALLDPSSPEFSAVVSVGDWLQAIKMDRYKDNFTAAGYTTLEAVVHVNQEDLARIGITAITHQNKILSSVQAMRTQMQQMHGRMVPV
Chain of Tyrosine-protein kinase Lck (P06239 whole entry): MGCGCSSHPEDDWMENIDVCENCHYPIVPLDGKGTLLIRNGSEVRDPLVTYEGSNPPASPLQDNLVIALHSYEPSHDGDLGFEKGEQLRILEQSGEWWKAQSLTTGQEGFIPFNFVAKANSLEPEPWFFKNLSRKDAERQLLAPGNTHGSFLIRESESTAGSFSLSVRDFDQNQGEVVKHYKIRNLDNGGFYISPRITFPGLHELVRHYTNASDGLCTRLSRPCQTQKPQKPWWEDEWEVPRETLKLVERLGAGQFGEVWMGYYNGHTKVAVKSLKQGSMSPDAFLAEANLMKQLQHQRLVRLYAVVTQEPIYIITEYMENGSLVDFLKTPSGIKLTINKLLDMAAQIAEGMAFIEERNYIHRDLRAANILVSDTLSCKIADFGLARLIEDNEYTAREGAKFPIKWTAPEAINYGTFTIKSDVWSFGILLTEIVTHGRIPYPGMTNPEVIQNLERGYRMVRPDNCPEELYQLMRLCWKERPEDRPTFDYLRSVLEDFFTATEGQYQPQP

As for `CN1CCC(COc2cnc(-c3cccc(Cn4nc(-c5cccc(C#N)c5)ccc4=O)c3)nc2)CC1` [TEPOTINIB], the Kd (in test [1]; in test [2]; on Aurora kinase B; in test [3]; at Ephrin type-A receptor 4; on Scaffold protein ILK) was > 30 µM (inactive) in each case. Also, the Kd (in test [4]; on Focal adhesion kinase 1; in [5]) was > 30 µM (inactive) each time.
On to `N[C@@H]1CCCN(c2c(/C=C3\SC(=O)NC3=O)cccc2-c2ccccc2)C1`, for which the Kd (in test [1]; in test [2]; on Aurora kinase B; in [3]; on Ephrin type-A receptor 4; at Scaffold protein ILK) was > 30 µM (inactive) each time. Also, the Kd (in test [4]; on Focal adhesion kinase 1; in [5]) was > 30 µM (inactive) in each case.
Regarding `CC[C@@H]1C(=O)N(C)c2cnc(Nc3ccc(C(=O)N[C@H]4CC[C@H](N5CCN(CC6CC6)CC5)CC4)cc3OC)nc2N1C(C)C` [VOLASERTIB], the Kd (in [1]; in [2]; on Aurora kinase B; in test [3]; at Ephrin type-A receptor 4; at Scaffold protein ILK) was > 30 µM (inactive) throughout. The Kd in test [4] is > 30 µM (inactive); on Focal adhesion kinase 1, 0.601 µM (active); in test [5], > 30 µM (inactive).
For the compound `Cc1cc(-c2cc(O)ccc2Cl)cc2nnc(Nc3ccc(OCCN4CCCC4)cc3)nc12`, the Kd in test [1] was > 30 µM (inactive); in test [2] it was > 30 µM (inactive); on Aurora kinase B, > 30 µM (inactive); in [3], 0.003 µM (active); at Ephrin type-A receptor 4, 0.002 µM (active); at Scaffold protein ILK, > 30 µM (inactive). The results for the Kd (in test [4]; on Focal adhesion kinase 1; in test [5]) were 0.002 µM (active), > 30 µM (inactive) and > 30 µM (inactive), respectively.
For `CCn1c(=O)c(-c2cc[nH]n2)cc2c(C)nc(N)nc21` [VOXTALISIB], the Kd (in test [1]; in [2]; on Aurora kinase B; in test [3]; at Ephrin type-A receptor 4; at Scaffold protein ILK) was > 30 µM (inactive) throughout. Also, the Kd (in test [4]; at Focal adhesion kinase 1; in test [5]) was > 30 µM (inactive) in each case.
`Cc1cc2c(F)c(Oc3ncnn4cc(OC[C@@H](C)OC(=O)[C@H](C)N)c(C)c34)ccc2[nH]1` [BRIVANIB ALANINATE]: the Kd (in test [1]; in [2]; at Aurora kinase B; in [3]; on Ephrin type-A receptor 4; on Scaffold protein ILK) was > 30 µM (inactive) each time. Further, the Kd (in [4]; at Focal adhesion kinase 1; in test [5]) was > 30 µM (inactive) throughout.
Consider `CN1CCC(CNc2ccc3ncc(-c4cccc(OC(F)(F)F)c4)n3n2)CC1` [SGI-1776], for which the Kd (in test [1]; in [2]; on Aurora kinase B; in test [3]; at Ephrin type-A receptor 4; at Scaffold protein ILK) was > 30 µM (inactive) throughout. For the same compound, the Kd (in test [4]; at Focal adhesion kinase 1; in [5]) was > 30 µM (inactive) throughout.
For the compound `CC[C@H](Nc1ncnc2[nH]cnc12)c1nc2cccc(F)c2c(=O)n1-c1ccccc1` [IDELALISIB], the Kd (in test [1]; in test [2]; at Aurora kinase B; in [3]; on Ephrin type-A receptor 4; on Scaffold protein ILK) was > 30 µM (inactive) in each case. Besides, the Kd (in [4]; at Focal adhesion kinase 1; in [5]) was > 30 µM (inactive) each time.
As to `COC(=O)[C@@]1(O)C[C@H]2O[C@]1(C)n1c3ccccc3c3c4c(c5c6ccccc6n2c5c31)C(=O)NC4` [K-252A], the Kd is > 30 µM (inactive) in test [1]; > 30 µM (inactive) in test [2]; 0.353 µM (active) at Aurora kinase B; > 30 µM (inactive) in [3]; > 30 µM (inactive) on Ephrin type-A receptor 4; > 30 µM (inactive) at Scaffold protein ILK. Also, the Kd in test [4] is > 30 µM (inactive); on Focal adhesion kinase 1, > 30 µM (inactive); in [5], 0.107 µM (active).
In the case of `O=C(c1ccc(F)c(F)c1Nc1ccc(I)cc1F)N1CC(O)([C@@H]2CCCCN2)C1` [COBIMETINIB], the Kd (in test [1]; in test [2]; on Aurora kinase B; in test [3]; on Ephrin type-A receptor 4; at Scaffold protein ILK) was > 30 µM (inactive) throughout. Further, the Kd (in test [4]; on Focal adhesion kinase 1; in test [5]) was > 30 µM (inactive) each time.
As to `Cn1cc(-c2ccc(F)c(C(F)(F)F)c2)nc1C1CCN(c2ncnc3[nH]ncc23)CC1` [LY-2584702], the Kd (in [1]; in test [2]; on Aurora kinase B; in test [3]; at Ephrin type-A receptor 4; at Scaffold protein ILK) was > 30 µM (inactive) throughout. In addition, the Kd (in test [4]; on Focal adhesion kinase 1; in test [5]) was > 30 µM (inactive) throughout.
As to `CNC(=O)CN1CCC(Oc2cc3c(Nc4cccc(Cl)c4F)ncnc3cc2OC)CC1` [SAPITINIB], the Kd in test [1] is > 30 µM (inactive); in [2], > 30 µM (inactive); on Aurora kinase B it was > 30 µM (inactive); in test [3] it was > 30 µM (inactive); on Ephrin type-A receptor 4, 7.4 µM (active); on Scaffold protein ILK, > 30 µM (inactive). In addition, the Kd (in test [4]; at Focal adhesion kinase 1; in [5]) was > 30 µM (inactive) in each case.
